Among the data in US9725462B2, “Pyridopyrimidine derivatives as protein kinase inhibitors” (Merck Patent GmbH, priority 2012, dated 2017) are IC50 values, retold here.

This assay deals with T1, SYK (Homo sapiens, UniProt P43405).
T1 construct: 2.5 nM SYK, 400 nM Biotin-Aha-Aha-KEDPDYEWPSAKK
Nature of the assay: SYK Flash Plate Assay (enzyme assay). It is filed as biochemical. The conditions noted are these: Syk inhibition. From the text:
The following abbreviations refer respectively to the definitions below: • aq (aqueous), h (hour), g (gram), L (liter), mg (milligram), MHz (Megahertz), min. (minute), mm (millimeter), mmol (millimole), mM (millimolar), m.p. (melting point), eq (equivalent), mL (milliliter), L (microliter), ACN (acetonitrile), AcOH (acetic acid), CDCl3 (deuterated chloroform), CD3OD (deuterated methanol), CH3CN (acetonitrile), c-hex (cyclohexane), DCC (dicyclohexyl carbodiimide), DCM (dichloromethane), DIC (diisopropyl carbodiimide), DIEA (diisopropylethyl-amine), DMF (dimethylformamide), DMSO (dimethylsulfoxide), DMSO-d6 (deuterated dimethylsulfoxide), EDC (1-(3-dimethyl-amino-propyl)-3-ethylcarbodiimide), ESI (Electro-spray ionization), EtOAc (ethyl acetate), Et2O (diethyl ether), EtOH (ethanol), HATU (dimethylamino-([1,2,3]triazolo[4,5-b]pyridin-3-yloxy)-methylene]-dimethyl-ammonium hexafluorophosphate), HPLC (High Performance Liquid Chromatography), i-PrOH (2-propanol), K2CO3 (potassium carbonate), LC (Liquid Chromatography), MeOH (methanol), MgSO4 (magnesium sulfate), MS (mass spectrometry), MTBE (Methyl tert-butyl ether), NaHCO3 (sodium bicarbonate), NaBH4 (sodium borohydride), NMM (N-methyl morpholine), NMR (Nuclear Magnetic Resonance), PyBOP (benzotriazole-1-yl-oxy-tris-pyrrolidino-phosphonium hexafluorophosphate), RT (room temperature), Rt (retention time), SPE (solid phase extraction), TBTU (2-(1-H-benzotriazole-1-yl)-1,1,3,3-tetramethyluromium tetrafluoro borate), TEA (triethylamine), TFA (trifluoroacetic acid), THF (tetrahydrofuran), TLC (Thin Layer Chromatography), UV (Ultraviolet). Description of the In Vitro Assays SYK Flash Plate Assay
The kinase assay is performed either as 384-well Flashplate assay (for e.g. Topcount measurement) or as 384-well Image-Flashplate assay (for LEADseeker measurement).
2.5 nM SYK, 400 nM Biotin-Aha-Aha-KEDPDYEWPSAKK
and 10 μM ATP (spiked with 0.3 μCi 33P-ATP/well) are incubated in a total volume of 50 μl (60 mM Hepes, 10 mM MgCl2, 1.2 mM Dithiothreitol, 0.02% Brij35, 0.1% BSA, pH 7.5) with or without test compound for 1 hours at 30° C. The reaction is stopped with 25 μl 200 mM EDTA. After 30 Min at 30° C. the liquid is removed and each well washed thrice with 100 μl 0.9% sodium chloride solution. Non-specific reaction is determined in presence of 0.1 μM Staurosporine. Radioactivity is measured with Topcount (when using Flashplates) or with LEADseeker (when using Image-Flashplates) respectively. Results (e.g. IC50-values) are calculated with program tools provided by the IT-department (e.g. Symyx Assay Explorer, Genedata Screener). In Vivo Assays CIA
Compound `Nc1ncc(-c2cccc(-n3nccn3)c2)c2nc(N[C@H]3CCCC[C@H]3N)ncc12` (relative stereo) [Compound A3, N2-(cis-2-Amino-cyclohexyl)-8-(3-[1,2,3]triazol-2-yl-phenyl)-pyrido[4,3-d]pyrimidine-2,5-diamine] registered an IC50 of 100 to 1000 nM.
The figure for `CC(C)(C)c1ccc(-c2cnc(N)c3cnc(N[C@H]4CCCC[C@H]4N)nc23)cc1` (relative stereo) [Compound A7, N2-(cis-2-Amino-cyclohexyl)-8-(4-tert-butyl-phenyl)-pyrido[4,3-d]pyrimidine-2,5-diamine] is 1000 to 50000 nM.
The figure for `CC(C)Cn1cc(-c2cnc(N)c3cnc(N[C@H]4CCCC[C@H]4N)nc23)cn1` (relative stereo) [Compound A8, N2-(cis-2-Amino-cyclohexyl)-8-(1-isobutyl-1H-pyrazol-4-yl)-pyrido[4,3-d]pyrimidine-2,5-diamine] is 100 to 1000 nM.
The figure for `N#Cc1cnc(N)c2cnc(N[C@H]3CCCC[C@H]3N)nc12` (relative stereo) [Compound A9, 5-Amino-2-(cis2-amino-cyclohexylamino)-pyrido[4,3-d]pyrimidine-8-carbonitrile] is 1000 to 50000 nM; for `Nc1ncc(-c2cc3ccccc3[nH]2)c2nc(N[C@@H]3CCCC[C@@H]3N)ncc12` (relative stereo) [Compound A10, N2-(cis-2-Amino-cyclohexyl)-8-(1H-indol-2-yl)-pyrido[4,3-d]pyrimidine-2,5-diamine] it is less than 100 nM.
`COc1cccc2cc(-c3cnc(N)c4cnc(N[C@@H]5CCCC[C@@H]5N)nc34)[nH]c12` (relative stereo) [Compound A18, N2-(cis-2-Amino-cyclohexyl)-8-(7-methoxy-1H-indol-2-yl)-pyrido[4,3-d]pyrimidine-2,5-diamine] returned a 50% inhibitory concentration (IC50) of less than 100 nM.
As to `COc1ccc2[nH]c(-c3cnc(N)c4cnc(N[C@@H]5CCCC[C@@H]5N)nc34)cc2c1` (relative stereo) [Compound A19, N2-(cis-2-Amino-cyclohexyl)-8-(5-methoxy-1H-indol-2-yl)-pyrido[4,3-d]pyrimidine-2,5-diamine], the IC50 is less than 100 nM.
For the compound `N#Cc1ccc2[nH]c(-c3cnc(N)c4cnc(N[C@@H]5CCCC[C@@H]5N)nc34)cc2c1` (relative stereo) [Compound A23, 2-[5-Amino-2-((cis)-2-amino-cyclohexylamino)-pyrido[4,3-d]-pyrimidin-8-yl]-1H-indole-5-carbonitrile], the IC50 fell in the range of 100 to 1000 nM.
In the case of `Nc1ncc(-c2c[nH]c3ccccc23)c2nc(N[C@H]3CCCC[C@H]3N)ncc12` (relative stereo) [Compound A24, N2-(cis-2-Amino-cyclohexyl)-8-(1H-indol-3-yl)-pyrido[4,3-d]pyrimidine-2,5-diamine], the half-inhibitory concentration (IC50) was less than 100 nM.
Next, `Cc1nn(C)cc1-c1cncc2cnc(N[C@@H]3CCCC[C@@H]3N)nc12` (relative stereo) [Compound A25, cis-N-[8-(1,3-Dimethyl-1H-pyrazol-4-yl)-pyrido[4,3-d]pyrimidin-2-yl]-cyclohexane-1,2-diamine]: 1000 to 50000 nM; `Cc1ncc(-c2c[nH]c3cc(C#N)ccc23)c2nc(N[C@H]3CCCC[C@H]3N)ncc12` (relative stereo) [Compound A85, 3-[2-((cis)-2-amino-cyclohexylamino)-5-methyl-pyrido[4,3-d]pyrimidin-8-yl]-1H-indole-6-carbonitrile]: 100 to 1000 nM.
`Cn1cc(-c2cnc(N)c3cnc(N[C@@H]4CCCC[C@@H]4N)nc23)cn1` (single isomer, unassigned) [Compound A1, N2-((cis)-2-Amino-cyclohexyl)-8-(1-methyl-1H-pyrazol-4-yl)-pyrido[4,3-d]-pyrimidine-2,5-diamine] yielded an IC50 of less than 100 nM.
`Cn1cc(-c2cnc(N)c3cnc(N[C@H]4CCCC[C@H]4N)nc23)cn1` (single isomer, unassigned) [Compound A4, N2-((cis)-2-Amino-cyclohexyl)-8-(1-methyl-1H-pyrazol-4-yl)-pyrido[4,3-d]pyrimidine-2,5-diamine] yielded an IC50 of 1000 to 50000 nM.
Next, `CN1CN(c2ncc3c(N)ncc(-c4cnn(C)c4)c3n2)[C@@H]2CCCC[C@@H]21` (single isomer, unassigned) [Compound A11, 2-((cis)-3-Methyl-octahydro-benzoimidazol-1-yl)-8-(1-methyl-1H-pyrazol-4-yl)-pyrido[4,3-d]pyrimidin-5-ylamine]: 1000 to 50000 nM.
The figure for `Nc1ncc(-c2ccc(OC(F)(F)F)cc2)c2nc(N[C@@H]3CCCC[C@@H]3N)ncc12` (single isomer, unassigned) [Compound A14, N2-((cis)-2-Amino-cyclohexyl)-8-(4-trifluoromethoxy-phenyl)-pyrido[4,3-d]pyrimidine-2,5-diamine] is 100 to 1000 nM.
In turn, `Cc1cccc(-c2cnc(N)c3cnc(N[C@H]4CCCC[C@H]4N)nc23)c1` (single isomer, unassigned) [Compound A21, N2-((cis)-2-Amino-cyclohexyl)-8-m-tolyl-pyrido[4,3-d]pyrimidine-2,5-diamine] registered a concentration for half-maximal inhibition (IC50) of 1000 to 50000 nM.
The figure for `Cc1cccc(-c2cnc(N)c3cnc(N[C@@H]4CCCC[C@@H]4N)nc23)c1` (single isomer, unassigned) [Compound A22, N2-((cis)-2-Amino-cyclohexyl)-8-m-tolyl-pyrido[4,3-d]pyrimidine-2,5-diamine] is less than 100 nM; for `FC1(CNc2ncc3cncc(-c4c[nH]c5cc(C(F)(F)F)ccc45)c3n2)CCCNC1` (single isomer, unassigned) [Compound A79, (3-fluoro-piperidin-3-ylmethyl)-[8-(6-trifluoromethyl-1H-indol-3-yl)-pyrido[4,3-d]pyrimidin-2-yl]-amine] it is 1000 to 50000 nM.
Next, `Cc1ncc(-c2c[nH]c3cc(C(F)(F)F)ccc23)c2nc(N[C@@H]3CCCC[C@@H]3N)ncc12` (single isomer, unassigned) [Compound A88]: 1000 to 50000 nM; `Cc1ncc(-c2c[nH]c3cc(C(F)(F)F)ccc23)c2nc(N[C@H]3CCCC[C@H]3N)ncc12` (single isomer, unassigned) [Compound A89]: less than 100 nM.
As to `N[C@@H]1CCCC[C@@H]1Nc1ncc2cncc(-c3c[nH]c4ccccc34)c2n1` (stereo in doubt) [Compound A27, (1S,2R)-N-[8-(1H-Indol-3-yl)-pyrido[4,3-d]pyrimidin-2-yl]-cyclohexane-1,2-diamine], the 50% inhibitory concentration (IC50) was less than 100 nM.
As for `Cc1cccc(-c2cncc3cnc(N[C@H]4CCCC[C@H]4N)nc23)c1` (stereo in doubt) [Compound A31, (1S,2R)-N-(8-m-Tolyl-pyrido[4,3-d]pyrimidin-2-yl)-cyclohexane-1,2-diamine], the IC50 was in the range of 100 to 1000 nM.
Take `N[C@@H]1CCCC[C@@H]1Nc1ncc2cncc(-c3cc4n(n3)CCCC4)c2n1` (stereo in doubt) [Compound A33, (1S,2R)-N-[8-(4,5,6,7-Tetrahydro-pyrazolo[1,5-a]pyridin-2-yl)-pyrido[4,3-d]pyrimidin-2-yl]-cyclohexane-1,2-diamine]: the IC50 fell in the range of 1000 to 50000 nM.
Consider `COc1cccc(C#Cc2cncc3cnc(N[C@H]4CCCC[C@H]4N)nc23)c1` (stereo in doubt) [Compound A35, (1S,2R)-N-[8-(3-Methoxy-phenylethynyl)-pyrido[4,3-d]pyrimidin-2-yl]-cyclohexane-1,2-diamine], for which the IC50 is 100 to 1000 nM.
